Results published in the supplement of paper PMC10307832.

Key:
Test in all cases: relative viability (nuclei count vs DMSO), 5 days (fraction); higher = more cells survive
NCI-H650 = test system: NCI-H650
Outline: (§1)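 For relative viability, nuclei counts in treated wells were divided by those in vehicle wells. Lung cancer cell lines had been pin-tool dosed in 1536-well plates the day after seeding and cultured for 5 days, then fixed and stained in one step (final 0.05% Triton X-100, 1% formaldehyde, 1 ug/ml Hoechst) and imaged at 4×. Doses were one drug alone or a fixed anchor-drug dose plus five library-drug doses (not always all listed) in √10 steps, and values are duplicate-plate medians.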

NCI-H1755 = test system: NCI-H1755
Outline: as §1

LXF-289 = test system: LXF-289
Outline: as §1

NCI-H1395 = test system: NCI-H1395
Outline: as §1

NCI-H1944 = test system: NCI-H1944
Outline: as §1

A-427 = test system: A-427
Outline: as §1

LU99A = test system: LU99A
Outline: as §1

NCI-H2126 = test system: NCI-H2126
Outline: as §1

NCI-H460 = test system: NCI-H460
Outline: as §1

LOU-NH91 = test system: LOU-NH91
Outline: as §1

NCI-H1666 = test system: NCI-H1666
Outline: as §1

NCI-H322M = test system: NCI-H322M
Outline: as §1

PC-3 [JPC-3] = test system: PC-3 [JPC-3]
Outline: as §1

SK-LU-1 = test system: SK-LU-1
Outline: as §1

NCI-H2170 = test system: NCI-H2170
Outline: as §1

NCI-H1915 = test system: NCI-H1915
Outline: as §1

HARA = test system: HARA
Outline: as §1

NCI-H23 = test system: NCI-H23
Outline: as §1

NCI-H441 = test system: NCI-H441
Outline: as §1

NCI-H1793 = test system: NCI-H1793
Outline: as §1

NCI-H2023 = test system: NCI-H2023
Outline: as §1

BEN = test system: BEN
Outline: as §1

LCLC-97TM1 = test system: LCLC-97TM1
Outline: as §1

## O=c1[nH]c2ccccc2n1C1CCN(CCCC(c2ccc(F)cc2)c2ccc(F)cc2)CC1 [Pimozide] + Cc1cc(Nc2cc(N3CCN(C)CC3)nc(Sc3ccc(NC(=O)C4CC4)cc3)n2)n[nH]1 [Tozasertib] (partner 0.1 µM)
NCI-H650; first compound 0.08 µM
  relative viability: 0.758
NCI-H650; first compound 0.253 µM
  relative viability: 0.702
NCI-H650; first compound 0.8 µM
  relative viability: 0.662
NCI-H650; first compound 2.53 µM
  relative viability: 0.698
NCI-H650; first compound 8 µM
  relative viability: 0.782
NCI-H1755; first compound 0.08 µM
  relative viability: 0.562
NCI-H1755; first compound 0.253 µM
  relative viability: 0.58
NCI-H1755; first compound 0.8 µM
  relative viability: 0.591
NCI-H1755; first compound 2.53 µM
  relative viability: 0.491
NCI-H1755; first compound 8 µM
  relative viability: 0.57
LXF-289; first compound 0.08 µM
  relative viability: 0.208
LXF-289; first compound 0.253 µM
  relative viability: 0.167
LXF-289; first compound 0.8 µM
  relative viability: 0.173
LXF-289; first compound 2.53 µM
  relative viability: 0.14
LXF-289; first compound 8 µM
  relative viability: 0.126
NCI-H1395; first compound 0.08 µM
  relative viability: 0.846
NCI-H1395; first compound 0.253 µM
  relative viability: 0.8
NCI-H1395; first compound 0.8 µM
  relative viability: 0.617
NCI-H1395; first compound 2.53 µM
  relative viability: 0.716
NCI-H1395; first compound 8 µM
  relative viability: 0.676
NCI-H1944; first compound 0.08 µM
  relative viability: 0.251
NCI-H1944; first compound 0.253 µM
  relative viability: 0.241
NCI-H1944; first compound 0.8 µM
  relative viability: 0.242
NCI-H1944; first compound 2.53 µM
  relative viability: 0.217
NCI-H1944; first compound 8 µM
  relative viability: 0.23
A-427; first compound 0.08 µM
  relative viability: 0.194
A-427; first compound 0.253 µM
  relative viability: 0.189
A-427; first compound 0.8 µM
  relative viability: 0.222
A-427; first compound 2.53 µM
  relative viability: 0.16
A-427; first compound 8 µM
  relative viability: 0.208
LU99A; first compound 0.08 µM
  relative viability: 0.244
LU99A; first compound 0.253 µM
  relative viability: 0.277
LU99A; first compound 0.8 µM
  relative viability: 0.27
LU99A; first compound 2.53 µM
  relative viability: 0.304
LU99A; first compound 8 µM
  relative viability: 0.256
NCI-H2126; first compound 0.08 µM
  relative viability: 0.861
NCI-H2126; first compound 0.253 µM
  relative viability: 0.787
NCI-H2126; first compound 0.8 µM
  relative viability: 0.756
NCI-H2126; first compound 2.53 µM
  relative viability: 0.817
NCI-H2126; first compound 8 µM
  relative viability: 0.772
NCI-H460; first compound 0.08 µM
  relative viability: 0.407
NCI-H460; first compound 0.253 µM
  relative viability: 0.314
NCI-H460; first compound 0.8 µM
  relative viability: 0.446
NCI-H460; first compound 2.53 µM
  relative viability: 0.0946
NCI-H460; first compound 8 µM
  relative viability: 0.436
LOU-NH91; first compound 0.08 µM
  relative viability: 0.451
LOU-NH91; first compound 0.253 µM
  relative viability: 0.614
LOU-NH91; first compound 0.8 µM
  relative viability: 0.553
LOU-NH91; first compound 2.53 µM
  relative viability: 0.648
LOU-NH91; first compound 8 µM
  relative viability: 0.652
NCI-H1666; first compound 0.08 µM
  relative viability: 0.628
NCI-H1666; first compound 0.253 µM
  relative viability: 0.571
NCI-H1666; first compound 0.8 µM
  relative viability: 0.648
NCI-H1666; first compound 2.53 µM
  relative viability: 0.559
NCI-H1666; first compound 8 µM
  relative viability: 0.476
NCI-H322M; first compound 0.253 µM
  relative viability: 0.51
NCI-H322M; first compound 0.8 µM
  relative viability: 0.523
NCI-H322M; first compound 2.53 µM
  relative viability: 0.515
NCI-H322M; first compound 8 µM
  relative viability: 0.425
PC-3 [JPC-3]; first compound 0.08 µM
  relative viability: 0.557
PC-3 [JPC-3]; first compound 0.253 µM
  relative viability: 0.875
PC-3 [JPC-3]; first compound 0.8 µM
  relative viability: 0.754
PC-3 [JPC-3]; first compound 2.53 µM
  relative viability: 0.771
PC-3 [JPC-3]; first compound 8 µM
  relative viability: 0.788
SK-LU-1; first compound 0.08 µM
  relative viability: 0.326
SK-LU-1; first compound 0.253 µM
  relative viability: 0.323
SK-LU-1; first compound 0.8 µM
  relative viability: 0.328
SK-LU-1; first compound 2.53 µM
  relative viability: 0.29
SK-LU-1; first compound 8 µM
  relative viability: 0.299
NCI-H2170; first compound 0.08 µM
  relative viability: 0.752
NCI-H2170; first compound 0.253 µM
  relative viability: 0.734
NCI-H2170; first compound 0.8 µM
  relative viability: 0.651
NCI-H2170; first compound 2.53 µM
  relative viability: 0.653
NCI-H2170; first compound 8 µM
  relative viability: 0.55
NCI-H1915; first compound 0.08 µM
  relative viability: 0.445
NCI-H1915; first compound 0.253 µM
  relative viability: 0.383
NCI-H1915; first compound 0.8 µM
  relative viability: 0.332
NCI-H1915; first compound 2.53 µM
  relative viability: 0.321
NCI-H1915; first compound 8 µM
  relative viability: 0.368
HARA; first compound 0.253 µM
  relative viability: 0.107
HARA; first compound 0.8 µM
  relative viability: 0.111
HARA; first compound 2.53 µM
  relative viability: 0.0907
HARA; first compound 8 µM
  relative viability: 0.123
NCI-H23; first compound 0.08 µM
  relative viability: 0.386
NCI-H23; first compound 0.253 µM
  relative viability: 0.396
NCI-H23; first compound 0.8 µM
  relative viability: 0.348
NCI-H23; first compound 2.53 µM
  relative viability: 0.336
NCI-H23; first compound 8 µM
  relative viability: 0.314
NCI-H441; first compound 0.08 µM
  relative viability: 0.655
NCI-H441; first compound 0.253 µM
  relative viability: 0.614
NCI-H441; first compound 0.8 µM
  relative viability: 0.569
NCI-H441; first compound 2.53 µM
  relative viability: 0.546
NCI-H441; first compound 8 µM
  relative viability: 0.618
NCI-H1793; first compound 0.253 µM
  relative viability: 0.341
NCI-H1793; first compound 0.8 µM
  relative viability: 0.439
NCI-H1793; first compound 2.53 µM
  relative viability: 0.244
NCI-H1793; first compound 8 µM
  relative viability: 0.278
NCI-H2023; first compound 0.08 µM
  relative viability: 0.352
NCI-H2023; first compound 0.253 µM
  relative viability: 0.314
NCI-H2023; first compound 0.8 µM
  relative viability: 0.454
NCI-H2023; first compound 2.53 µM
  relative viability: 0.228
NCI-H2023; first compound 8 µM
  relative viability: 0.237
BEN; first compound 0.08 µM
  relative viability: 0.465
BEN; first compound 0.253 µM
  relative viability: 0.548
BEN; first compound 0.8 µM
  relative viability: 0.427
BEN; first compound 2.53 µM
  relative viability: 0.471
BEN; first compound 8 µM
  relative viability: 0.422
LCLC-97TM1; first compound 0.08 µM
  relative viability: 0.265
LCLC-97TM1; first compound 0.253 µM
  relative viability: 0.212
LCLC-97TM1; first compound 0.8 µM
  relative viability: 0.225
LCLC-97TM1; first compound 2.53 µM
  relative viability: 0.173
LCLC-97TM1; first compound 8 µM
  relative viability: 0.193
